In brackets after ≈: the same amount, converted by molar mass. Where two headings read alike, the source gives them in different places.
Experiments:
in vitro [1] = conditions: human
[2] = test system: Enterovirus strains Poliovirus 2, Echoviruses 2, 3, 9, 21 and 30 and Coxsackie B3; format: cell-based; conditions: all Enterovirus strains tested
Coxsackie A21 = experiment: Activity on Coxsackie A21 in mammalian cell culture assay; format: cell-based
in vitro [3] = experiment: in vitro
Enterovirus 70 = experiment: Activity on Enterovirus 70 in mammalian cell culture assay; format: cell-based; conditions: Enterovirus D
HRV type 2 = experiment: Inhibition of viral cytopathic effect (CPE), visual scoring or neutral red, HRV type 2 in KB cells; format: cell-based, human rhinovirus
[4] = test system: Human Rhinovirus strains 1B, 3, 4, 5, 6, 8, 9, 11, 12, 13, 16, 17, 21, 25, 30, 32, 33, 38, 39, 40, 42, 43, 45, 48, 52, 54, 56, 57, 59, 60, 63, 67, 68, 69, 72 …; experiment: Standard CPE reduction assay against a panel of Human Rhinovirus strains; format: cell-based; conditions: nearly all HRV strains tested
in vitro [5] = experiment: in vitro; remark: listed apart in the source

SMILES: CCO/N=C/c1ccc(OCCC2CCN(c3ccc(Cl)nn3)CC2)cc1 [Compound 1, 4-{2-[1-(6-Chloro-3-pyridazinyl)4-piperidinyl]ethoxy}benzaldehyde O-ethyloxime]
- CC50 (in vitro [1]): > 1 µg/mL
- Inhibitory activity compared with Pirodavir [2]: superior activity to Pirodavir
- EC50 (Coxsackie A21): < 0.000156 µg/mL
- CC50 (in vitro [3]): > 50 µg/mL
- EC50 (Enterovirus 70): 0.03 µg/mL (≈ 0.0771 µM)
- EC50 (HRV type 2; Enterovirus, HRV type 2 in KB cells, CPE inhibition, read-out: Activity on Rhinovirus Type 2 EC50): < 0.001 µg/mL
- Activity on Rhinovirus Type 2 SI (HRV type 2; selectivity index = CC50 or MTC divided by EC50, HRV type 2, KB cells): >1000
- Inhibitory activity compared with Pirodavir [4]: superior activity to Pirodavir
- CC50 (in vitro [5]): > 50 µg/mL

From patent publication US7078403B1, “Antiviral agents” (Biota Scientific Management Pty Ltd., priority 1999, dated 2006)
